We go through 5 molecules from patent US20090048205A1, “COMBINATION THERAPY WITH SYNTHETIC TRITERPENOIDS AND GEMCITABINE” (priority 2007, published 2009).

For data set [1], the system named is NF-κB. Particulars: human leukemia cell lines and patient samples; Shishodia et al. (2006); cited from earlier work.
In data set [2] the target is T1, IKKb (Homo sapiens, UniProt O14920).
T1 sequence (O14920 1-756): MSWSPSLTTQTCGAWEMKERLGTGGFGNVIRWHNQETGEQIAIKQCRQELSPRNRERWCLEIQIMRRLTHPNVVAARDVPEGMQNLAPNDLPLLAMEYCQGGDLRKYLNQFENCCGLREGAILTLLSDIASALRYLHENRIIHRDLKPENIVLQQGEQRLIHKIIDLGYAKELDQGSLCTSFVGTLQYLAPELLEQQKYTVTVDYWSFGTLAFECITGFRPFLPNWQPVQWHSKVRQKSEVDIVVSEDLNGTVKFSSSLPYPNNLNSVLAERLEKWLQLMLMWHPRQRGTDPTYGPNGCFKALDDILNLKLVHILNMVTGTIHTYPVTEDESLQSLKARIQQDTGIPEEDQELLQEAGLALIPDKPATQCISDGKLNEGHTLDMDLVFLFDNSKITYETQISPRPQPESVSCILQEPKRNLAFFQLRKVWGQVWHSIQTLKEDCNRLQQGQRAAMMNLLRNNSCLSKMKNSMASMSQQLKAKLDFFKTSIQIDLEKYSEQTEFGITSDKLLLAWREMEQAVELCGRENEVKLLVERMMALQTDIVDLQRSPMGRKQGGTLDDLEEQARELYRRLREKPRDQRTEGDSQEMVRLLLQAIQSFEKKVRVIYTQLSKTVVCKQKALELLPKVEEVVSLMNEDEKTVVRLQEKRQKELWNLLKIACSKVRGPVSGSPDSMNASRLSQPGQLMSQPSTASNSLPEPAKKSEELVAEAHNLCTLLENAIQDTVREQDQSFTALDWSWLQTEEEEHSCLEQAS
Particulars: via binding to Cys179; cited from earlier work.

For data set [3] the following is noted: mice; cited from earlier work.
For data set [4], the system named is Stage IV pancreatic cancer. Particulars: compared with the combination; cited from earlier work.
The conditions of data set [5]: cited from earlier work.
In data set [6] the test system is heme oxygenase-1 (HO-1). Particulars: at nanomolar concentrations; in vitro and in vivo; Liby et al. (2005); cited from earlier work.
The conditions of data set [7]: monkeys, equivalent dosages orally in gelatin capsules; Form B versus Form A.

In the case of `COC(=O)[C@]12CCC(C)(C)CC1C1C(=O)C=C3[C@@]4(C)C=C(C#N)C(=O)C(C)(C)[C@@H]4CC[C@@]3(C)[C@]1(C)CC2` (stereo partly shown) [CDDO-Me], in data set [1], the “Inhibition of constitutive and inducible NF-κB” value is recorded as “potently inhibits”. Also, the “Inhibition of IKKb activity” value in data set [2] is recorded as “direct inhibitors”.
With `Nc1ccn([C@@H]2O[C@H](CO)[C@@H](O)C2(F)F)c(=O)n1` [gemcitabine, 2′,2′-difluoro-2′-deoxycytidine], the Maximum tolerated dose in data set [3] is on record as 300 mg/kg/dose. For the same molecule, the “Clinical activity of gemcitabine alone (historical)” value in data set [4] was “has not produced this level of clinical activity”. Further, the Maximum administered dose in data set [5] (humans) is recorded as 1000 mg/m^2. The “Dose reported to be tolerated in patients” value in data set [5] (prolonged infusion for up to 12 hours) was 10 mg/m^2/min.
In the case of `CC1(C)CC[C@]2(C(=O)O)CC[C@]3(C)[C@H](C(=O)C=C4[C@@]5(C)C=C(C#N)C(=O)C(C)(C)[C@@H]5CC[C@]43C)[C@@H]2C1` [CDDO, 2-cyano-3,12-dioxooleana-1,9(11)-dien-28-oic acid], in data set [6], the “Expression of heme oxygenase-1 (HO-1) enzyme” value is on record as “rapidly increase the expression”.
Regarding `COC(=O)[C@]12CCC(C)(C)C[C@H]1[C@H]1C(=O)C=C3[C@@]4(C)C=C(C#N)C(=O)C(C)(C)[C@@H]4CC[C@@]3(C)[C@]1(C)CC2` [Form B], in data set [7], the Bioavailability result was “surprisingly better than that of Form A”.
`CC1(C)CC[C@]2(C(=O)n3ccnc3)CC[C@]3(C)[C@H](C(=O)C=C4[C@@]5(C)C=C(C#N)C(=O)C(C)(C)[C@@H]5CC[C@]43C)[C@@H]2C1` [CDDO-Im]: the “Inhibition of IKKb activity” value in data set [2] is given as “direct inhibitors”. Also, the “Expression of heme oxygenase-1 (HO-1) enzyme” value in data set [6] is “rapidly increase the expression”.
